Data from article PMC10445491 (Frontiers in Chemistry, 2023).
“Also recorded” adds a separate entry of the source. Like-named read-outs stand apart in the source and are kept apart here.

How the values were obtained:
[1] = system: neuraminidase from Clostridium perfringens (BNA, EC 3.2.1.18); type: biochemical; details: for fold higher inhibition than compound 6: ratio of IC50 vs compound 6
[2] = biological target: neuraminidase from Clostridium perfringens (BNA); type: biochemical; details: for Kinetic mode: Lineweaver-Burk and Dixon plots
[3] = biological target: neuraminidase from Clostridium perfringens (BNA) (Clostridium perfringens, UniProt P10481); type: binding
[4] = sodium acetate buffer pH 5.0, substrate 100 μM, BNA 0.02 unit/mL, triplicate, read-out: IC50
[5] = Dixon plots, read-out: K i (inhibition constant)

neuraminidase from Clostridium perfringens (BNA) (Clostridium perfringens, UniProt P10481), sequence (P10481 whole entry, looked up): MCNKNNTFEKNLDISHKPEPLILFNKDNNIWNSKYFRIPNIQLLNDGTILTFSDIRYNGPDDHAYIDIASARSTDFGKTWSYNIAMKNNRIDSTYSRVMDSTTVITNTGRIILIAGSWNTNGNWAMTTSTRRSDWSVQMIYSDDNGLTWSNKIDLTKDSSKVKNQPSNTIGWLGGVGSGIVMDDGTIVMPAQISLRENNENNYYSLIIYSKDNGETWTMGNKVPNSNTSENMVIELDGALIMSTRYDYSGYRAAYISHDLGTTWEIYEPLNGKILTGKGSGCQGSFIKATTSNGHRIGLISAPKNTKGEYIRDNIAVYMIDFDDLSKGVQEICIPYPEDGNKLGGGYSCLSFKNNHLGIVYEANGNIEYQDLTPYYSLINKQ

With `CC(C)=CCC/C(C)=C/Cc1c(O)c(CC=C(C)C)c(O)c2c(=O)c3cc(O)ccc3oc12` [Compound 6, cochinechinone A] the “fold more effective relative to gentisein” value ([1]; ratio of IC50 vs gentisein) was 2 fold, the IC50 [1, 4] was 9.8 ± 0.3 µM and the Ki [2, 5] was 9.6 µM. For the same compound, the Kinetic mode [2] was “non-competitive inhibitor”, the “K A (affinity constant)” value [3] was 1800 L/mol and the “K SV (Stern-Volmer constant)” value [3] was 9860 L/mol. For the same compound, the “n (binding number of xanthone to the BNA)” value [3] was 0.4337.
For `C=C(C)C(O)CC/C(C)=C/Cc1c(O)c(CC=C(C)C)c(O)c2c(=O)c3cc(O)ccc3oc12` (stereo not shown) [Compound 1, (E)-1,3,7-trihydroxy-4-(6-hydroxy-3,7-dimethylocta-2,7-dien-1-yl)-2-(3-methylbut-2-en-1-yl)-9H-xanthen-9-one], the “fold more effective than compound 3” value ([1]; ratio of IC50 vs compound 3) was 100 fold, the “fold higher inhibition than compound 6” value [1] was 30 fold and the IC50 [1, 4] was 0.38 ± 0.03 µM. The Ki [2, 5] was 0.17 µM, the Kinetic mode [2] was “competitive inhibitor” and the “Time-dependent (slow-binding) behaviour” value ([2]; preincubation 0-75 min) was “reversible slow-binding inhibition; also recorded: simple slow-binding inhibitor; also recorded: simple reversible slow binding behavior”. For the same compound, the Reversibility of inhibition ([2]; residual activity vs enzyme concentration (0.01, 0.02, 0.04 unit/mL)) was “reversible inhibitor”, the “k 3” value ([2]; slow-binding inhibition, forward rate of enzyme-inhibitor complex formation) was 141000 M⁻¹ s⁻¹ and the Ki ([2]; slow-binding inhibition, preincubation with 0, 0.2, 0.4, 0.8 µM inhibitor, read-out: K i app) was 0.144 µM. For the same compound, the “k 4” value ([2]; slow-binding inhibition, reverse rate) was 0.0203 min⁻¹, the “Change of BNA fluorescence (FS) intensity with increasing inhibitor concentration” value [3] was “decreased dramatically” and the “K A (affinity constant)” value [3] was 244300 L/mol. For the same compound, the “K SV (Stern-Volmer constant)” value [3] was 157920 L/mol and the “n (binding number of xanthone to the BNA)” value [3] was 1.2897.
`C=C(C)CC(O)c1c(O)c(C/C=C(\C)CCC=C(C)C)c2oc3ccc(O)cc3c(=O)c2c1O` (stereo not shown) [Compound 4, cratoxanthone A] was tested, and the “fold higher inhibition than compound 6” value [1] was 3 fold, the IC50 [1, 4] was 3.8 ± 0.1 µM and the Ki [2, 5] was 4.2 µM. For the same compound, the Kinetic mode [2] was “Non-competitive”, the “K A (affinity constant)” value [3] was 55450 L/mol and the “K SV (Stern-Volmer constant)” value [3] was 27140 L/mol. The “n (binding number of xanthone to the BNA)” value [3] was 0.7819.
`C=C(CCC=C(C)C)C(O)Cc1c(O)c(CC=C(C)C)c(O)c2c(=O)c3cc(O)ccc3oc12` (stereo not shown) [Compound 5, cratoxanthon F] was tested, and the IC50 [1, 4] was 9.2 ± 0.2 µM, the Ki [2, 5] was 9.1 µM and the Kinetic mode [2] was “Non-competitive”. The “K A (affinity constant)” value [3] was 1030 L/mol, the “K SV (Stern-Volmer constant)” value [3] was 10230 L/mol and the “n (binding number of xanthone to the BNA)” value [3] was 0.4992.
In the case of “(E)-1,3,7-trihydroxy-4-(7-hydroxy-3,7-dimethyloct-2-en-1-yl)-2-(3-methylbut-2-en-1-yl)-9H-xanthen-9-one [Compound 2]”, the IC50 [1, 4] is reported as 38.9 ± 0.6 µM, the Ki [2, 5] is reported as 40.7 µM and the Kinetic mode [2] is reported as “Non-competitive”. For the same compound, the “Change of BNA fluorescence (FS) intensity with increasing inhibitor concentration” value [3] was “did not decrease”, the “K A (affinity constant)” value [3] was 20 L/mol and the “K SV (Stern-Volmer constant)” value [3] was 970 L/mol. For the same compound, the “n (binding number of xanthone to the BNA)” value [3] was 0.1796.
`O=c1c2cc(O)ccc2oc2cc(O)cc(O)c12` [Gentisein, reference compound] was tested, and the IC50 [1, 4] was 21.4 ± 0.5 µM, the IC50 ([1]; text in the panels of supplementary Figure S36, read-out: IC50 printed in Figure S36) was 21.4 µM and the “K A (affinity constant)” value [3] was 110 L/mol. For the same compound, the “K SV (Stern-Volmer constant)” value [3] was 5350 L/mol and the “n (binding number of xanthone to the BNA)” value [3] was 0.3701.
For `CC(C)=CCc1c(O)c(C/C=C(\C)C/C=C/C(C)(C)O)c2oc3ccc(O)cc3c(=O)c2c1O` [Compound 3, 1,3,7-trihydroxy-4-[(2E,5E)-7-hydroxy-3,7-dimethylocta-2,5-dien-1-yl]-2-(3-methylbut-2-en-1-yl)-9H-xanthen-9-one], the IC50 [1, 4] was 35.8 ± 0.7 µM, the Ki [2, 5] was 38.2 µM and the Kinetic mode [2] was “Non-competitive”. For the same compound, the “K A (affinity constant)” value [3] was 20 L/mol, the “K SV (Stern-Volmer constant)” value [3] was 1000 L/mol and the “n (binding number of xanthone to the BNA)” value [3] was 0.2168.
